Test results as given in US5882851A, “Cytochrome P-450 monooxygenases” (Novartis Finance Corporation, priority 1993, dated 1999).

Legend:
cytochrome P-450TYR [1] = molecular target: T1, cytochrome P-450TYR (Sorghum bicolor, UniProt Q43135); test: Substrate binding spectra of isolated sorghum cytochrome P-450TYR (difference spectrum A390-420)
T1 construct: from tissue; host or cells: microsomes of etiolated Sorghum bicolor seedlings, solubilised and purified by dye columns
T1 sequence (Q43135 1-558): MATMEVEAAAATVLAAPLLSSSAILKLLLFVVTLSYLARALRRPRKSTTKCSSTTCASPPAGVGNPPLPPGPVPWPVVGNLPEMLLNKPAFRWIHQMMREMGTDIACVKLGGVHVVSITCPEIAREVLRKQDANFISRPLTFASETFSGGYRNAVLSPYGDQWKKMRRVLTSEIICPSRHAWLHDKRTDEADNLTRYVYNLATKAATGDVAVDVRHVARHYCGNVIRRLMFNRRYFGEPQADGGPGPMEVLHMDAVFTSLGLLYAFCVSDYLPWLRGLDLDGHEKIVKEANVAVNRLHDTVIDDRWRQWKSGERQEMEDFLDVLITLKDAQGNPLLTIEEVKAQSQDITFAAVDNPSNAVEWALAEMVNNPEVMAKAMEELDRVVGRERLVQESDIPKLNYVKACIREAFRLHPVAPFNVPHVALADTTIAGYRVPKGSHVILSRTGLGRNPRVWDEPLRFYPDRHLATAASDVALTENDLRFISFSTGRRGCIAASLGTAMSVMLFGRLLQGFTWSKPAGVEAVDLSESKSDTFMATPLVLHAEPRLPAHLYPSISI
Protocol: Cytochrome P-450 substrate binding spectra are recorded with stepwise increased substrate concentration until saturating conditions are reached.
Cytochrome P-450TYR in the oxidized state has a strong absorption peak at 420 nm, representing the low spin state of the iron of the heme group. The binding of a ligand to the heme group shifts the absorption maximum by changing the spin state of the iron. […] The following experimental procedure is used to obtain the substrate binding spectrum: two identical cuvettes containing a buffered solution of the isolated cytochrome P-450 are prepared. The substrate of the enzyme is added to the sample cuvette whereas the same volume of buffer is added to the other cuvette. The difference spectrum is then recorded in an SLM-Aminco DW2c spectrophotometer. The absorption difference, A390-420, is proportional to the concentration of cytochrome P-450TYR with a bound substrate at its active site. If a saturating concentration of substrate is added to the sample cuvette, the absorption difference is proportional to the concentration of the substrate specific cytochrome P-450 in the cuvettes. The saturating concentration of the substrate is determined by titrating the cytochrome P-450 sample with increasing amounts of substrate and monitoring A390-420.
If a cytochrome P-450 sample can be saturated with two different substrates, there may be two different cytochrome P-450 enzymes in the sample, or there may be one cytochrome P-450 enzyme able to bind to both substrates. To discriminate between these possibilities, saturating amounts of the two substrates are added sequentially and the A390-420absorption change is monitored. If, independent of the order of addition, the addition of the second sample gives rise to an increased A390-420value compared to the value after the addition of the first substrate, the two substrates are bound by different enzymes. If A390-420 remains unchanged upon addition of the second substrate, independent of the order of addition, both substrates bind to the same active site, i.e. to the same cytochrome P-450 enzyme.

cytochrome P-450TYR [2] = molecular target: T2, cytochrome P-450TYR (Sorghum bicolor, UniProt Q43135); test: Reconstitution of cytochrome P-450TYR activity in DLPC micelles; format: biochemical
T2 construct: from tissue; host or cells: microsomes of etiolated Sorghum bicolor seedlings, solubilised and purified by dye columns
From the text: Reconstitution of the enzyme activity of a microsomal P-450 enzyme is accomplished by insertion of the cytochrome P-450 enzyme and the corresponding NADPH-cytochrome P-450 oxidoreductase into appropriate lipid micelles made from different commercially available lipids. Isolation of NADPH-cytochrome P-450 oxidoreductase is done according to Halkier and Moller, Plant Physiol. 96:10-17, 1990. A mixture of lipids can be used but with cytochrome P-450TYR di-lauroyl-phosphatidyl choline (DLPC) provides the best enzymatic activity. One rate limiting factor of this rate limiting reaction is the number of correctly formed complexes of cytochrome P-450TYR and NADPH-cytochrome P-450 oxidoreductase. Excess amounts of the oxidoreductase and concentrated enzyme solutions ensure a sufficient number of active complexes.
A reconstituted enzyme is obtained using the following components:
Cytochrome P-450TYR : 100 μg/ml in 50 mM potassium phosphate buffer pH 7,9
Oxidoreductase, purified from Sorghum bicolor: 100 μg/ml in 50 mM potassium phosphate buffer pH 7,9
Lipid: 10 mg/ml di-lauroyl-phosphatidyl choline, sonicated in 50 mM potassium phosphate buffer pH 7,9
^14 C-tyrosine: commercially available from Amersham; [U-^14 C]-L-tyrosine 0.5 μCi
10 μl of the lipid suspension is mixed in a glass vial with 50 μl of the cytochrome P-450TYR (0-1.5 pmol) solution. 50 μl of the oxidoreductase (0-0.15 U) solution is added and then 10 μl tyrosine solution and 10 μl NADPH solution are added and the mixture is sonicated in a Branson 5200 sonication bath for one minute. The reaction mixture is subsequently incubated for 1 hour at 30° C. At the end of the incubation period the reaction is stopped by transferring the glass vials onto ice. Radioactively labelled intermediates formed are extracted into 50 μl ehtyl acetate, applied to a silica coated TLC plate and developed using an ethyl acetate/toluene (1:5 v/v) mixture as mobile phase. The resultant product, p-hydroxyphenylacetaldehyde oxime is visualized by autoradiography of the TLC plate. Alternatively, the intermediates are analyzed by reverse-phase HPLC coupled to a Berthold radioactiviy monitor. The HPLC separation was carried out using a nucleosil 100-10C18 column isocratically eluted with 1,5% 2-propanol in 25 mM Hepes pH 7,9 (Halkier et al, J. Biol. Chem. 264:19487-19494, 1989). Control samples may be made by omitting either cytochrome P-450 oxidoreductase or NADPH.

SMILES: N[C@@H](Cc1ccc(O)cc1)C(=O)O [tyrosine, L-tyrosine]
- initial A390-420 (cytochrome P-450TYR [1]; 30 μl 5 mM tyrosine added to 500 μl P-450TYR): 0,0437
- resulting A390-420 (cytochrome P-450TYR [1]; 30 μl 5 mM tyrosine, dilution factor 530/500): 0,0463
- initial A390-420 (cytochrome P-450TYR [1]; 60 μl 5 mM tyrosine): 0,0496
- resulting A390-420 (cytochrome P-450TYR [1]; 60 μl 5 mM tyrosine, dilution factor 560/500): 0,0556
- initial A390-420 (cytochrome P-450TYR [1]; 90 μl 5 mM tyrosine): 0,0486
- resulting A390-420 (cytochrome P-450TYR [1]; 90 μl 5 mM tyrosine, dilution factor 590/500): 0,0573
- type of substrate binding spectrum (cytochrome P-450TYR [1]; isolated sorghum P-450TYR): type I binding spectrum
- turn-over number (cytochrome P-450TYR [2]; in the absence of added salt): 228 min⁻¹
- turn-over number (cytochrome P-450TYR [2]; in the presence of 15 mM NaCl): 198 min⁻¹
